For one series, the system named is T-tropic HIV. The settings on record: patients dual tropic or with only the T-tropic form of the virus; cited from earlier work.
For another series, the target named is T1, human CXCR4 (Homo sapiens, UniProt P61073).
T1 construct: expressed in transfected cells; host or cells: HEK-293 cells (stably expressing human macrophage scavenger receptor class A type 1), transduced with human CXCR4 BacMam and Gqi5 BacMam baculoviruses
The series can be described thus: Functional FLIPR assay (block of SDF-1 alpha induced [Ca2+]i change). Format: cell-based. The settings on record: HEK-293 cells with human CXCR4 and Gqi5 BacMam; antagonism of SDF-1 alpha; read-out: Functional assay (pIC50) (converted). As to the method: Human embryonic kidney (HEK-293) cells were maintained and harvested as described above. Cells were plated in 96-well, black clear bottom, poly-lysine coated plates at a concentration of 40,000 cells per well in a final volume of 100 ul containing human CXCR4 BacMam (MOI=25) and Gqi5 BacMam (MOI=12.5). The cells were incubated at 37° C., 5% CO2, 95% humidity for 24 h to allow for protein expression.
After the required incubation time the cells were washed once with 50 ul of fresh serum-free DMEM/F12 media containing probenicid. 50 ul of dye solution was then added to the cells (Calcium Plus Assay Kit Dye; Molecular Devices) was dissolved in 200 ml of the above probenicid/BSA containing media and incubated for 1 h. Cell plates were transferred to a Fluorometric Imaging Plate Reader (FLIPR). Upon addition the effect of the compounds on the change in [Ca^2+]i was examined to determine if the compounds were agonists or antagonists (ability to block SDF-1 alpha activity) at the CXCR4 receptor. IC50 values are determined and pKb values are calculated using the Leff and Dougall equation: KB=IC50/((2+([agonist]/EC50ˆb)ˆ1/b−1) Where IC50 is that defined by the antagonist concentration-response curve [agonist] is the EC80 concentration of agonist used EC50 is that defined by the agonist concentration-response curve b is the slope of the agonist concentration-response curve.

A short description of series [1]: Compound cytotoxicity in the absence of virus (CellTiter-Glo). Format: cell-based. To be noted: human; HOS cells, no virus; read-out: Cytotox (pIC50) (converted). On the procedure:
(§1) Compounds were profiled against two HIV-1 viruses, the M-tropic (CCR5 utilizing) Ba-L strain and the T-tropic (CXCR4 utilizing) IIIB strain. Both viruses were propagated in human peripheral blood lymphocytes. Compounds were tested for there ability to block infection of the HOS cell line (expressing hCXCR4/hCCR5/hCD4/pHIV-LTR-luciferase) by either HIV-1 Ba-L or HIV-1 IIIB. Compound cytotoxicity was also examined in the absence of virus addition.
(§2) HOS cells (expressing hCXCR4/hCCR5/hCD4/pHIV-LTR-luciferase) were harvested and diluted in Dulbeccos modified Eagles media supplemented with 2% FCS and non-essential amino acid to a concentration of 60,000 cells/ml. The cells were plated into 96-well plates (100 ul per well) and the plates were placed in a tissue culture incubator (37° C.; 5% CO2/95% air) for a period of 24 h.
(§3) Subsequently, 50 ul of the desired drug solution (4 times the final concentration) was added to each well and the plates were returned to the tissue culture incubator (37° C.; 5% CO2/95% air) for 1 h. Following this incubation 50 ul of diluted virus was added to each well (approximately 2 million RLU per well of virus). The plates were returned to the tissue culture incubator (37° C.; 5% CO2/95% air) and were incubated for a further 96 h.
(§4) Following this incubation the endpoint for the virally infected cultures was quantified following addition of Steady-Glo Luciferase assay system reagent (Promega, Madison, Wis.). Cell viability or non-infected cultures was measured using a CellTiter-Glo luminescent cell viability assay system (Promega, Madison, Wis.). All luminescent readouts are performed on a Topcount luminescence detector (Packard, Meridien, Conn.).
(In ATP-based viability assays light output follows the ATP content of the culture.)

A further series deals with HIV. The series can be described thus: HOS HIV infectivity assay (Table 2, strain not given). Format: cell-based. The settings on record: Human immunodeficiency virus 1, read-out: Activity Level. Summed up: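 HOS cells expressing hCXCR4/hCCR5/hCD4 and an HIV-LTR-luciferase reporter were preincubated with compound for 1 h in DMEM/2% FCS. They were then infected with HIV-1 Ba-L or IIIB (about 2 million RLU/well) for 96 h at 37° C. Infection was read by luciferase luminescence, and viability in uninfected cultures by CellTiter-Glo.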

The test system of the next series is HIV-1 IIIB. Kind of series: HOS HIV-1 infectivity assay, IIIB strain. Format: cell-based. To be noted: Human immunodeficiency virus 1; HOS cells, HIV-1 IIIB (T-tropic, CXCR4 utilizing), 96 h; read-out: HOS (3B). As to the method: HOS HIV-1 Infectivity Assay
as §1
HOS HIV-1 Infectivity Assay Format
as §2, §3, §4

The subject of series [2] is HOS (hCXCR4/hCCR5/hCD4/pHIV-LTR-luciferase) cells and HEK-293 cells expressing HIV-1 gp160 (HXB2 strain). Kind of series: Cell/cell fusion assay (luciferase). Format: cell-based. To be noted: Homo sapiens, HEK293; 24 h, luciferase readout; read-out: Fusion assay (pIC50) (converted). From the text: The complete coding sequences of HIV-1 tat (GenBank Accession No. X07861) and rev (GenBank Accession No. M34378) were cloned into pcDNA3.1 expression vectors containing G418 and hygromycin resistance genes, respectively. The complete coding sequence of the HIV-1 (HXB2 strain) gp160 envelope gene (nucleotide bases 6225-8795 of GenBank Accession No. K03455) was cloned into plasmid pCRII-TOPO. The three HIV genes were additionally inserted into the baculovirus shuttle vector, pFastBacMam1, under the transcriptional control of the CMV promoter. A construction of the pHIV-I LTR containing mutated NFkB sequences linked to the luciferase reporter gene was prepared by digesting pcDNA3.1, containing the G418 resistance gene, with Nru I and Bam HI to remove the CMV promoter. LTR-luc was then cloned into the Nru I/Bam HI sites of the plasmid vector. Plasmid preparations were performed after the plasmids were amplified in Escherichia coli strain DH5-alpha. The fidelity of the inserted sequences was confirmed by double-strand nucleotide sequencing using an ABI Prism Model 377 automated sequencer.
BacMam Baculovirus Generation
Recombinant BacMam baculoviruses were constructed from pFastBacMam shuttle plasmids by using the bacterial cell-based Bac-to-Bac system. Viruses were propagated in Sf9 (Spodoptera frugiperda) cells cultured in Hink's TNM-FH Insect media supplemented with 10% (v/v) fetal bovine serum and 0.1% (v/v) pluronic F-68 according to established protocols.
Human osteosarcoma (HOS) cells that naturally express human CXCR4 were transfected with human CCR5, human CD4 and the pHIV-LTR-luciferase plasmid using FuGENE 6 transfection reagent. Single cells were isolated and grown under selection condition in order to generate a stable HOS (hCXCR4/hCCR5/hCD4/pHIV-LTR-luciferase) clonal cell line. The cells were maintained in Dulbeccos modified Eagles media supplemented with 10% fetal calf serum (FCS), G418 (400 ug/ml), puromycin (1 ug/ml), mycophenolic acid (40 ug/ml), xanthine (250 ug/ml) and hypoxanthine (13.5 ug/ml) to maintain a selection pressure for cells expressing the LTR-luciferase, hCCR5 and hCD4, respectively. Human embryonic kidney (HEK-293) cells stably transfected to express the human macrophage scavenging receptor (Class A, type 1; GenBank Accession No. D90187), were maintained in DMEM/F-12 media (1:1) supplemented with 10% FCS and 1.5 ug/ml puromycin. The expression of this receptor by the HEK-293 cells enhances their ability to stick to tissue culture treated plasticware.
Transduction of HEK-293 cells
HEK-293 cells were harvested using enzyme-free cell dissociation buffer. The cells were resuspended in DMEM/F-12 media supplemented with 10% FCS and 1.5 ug/ml and counted. Tranductions were performed by direct addition of BacMam baculovirus containing insect cell media to cells. The cells were simultaneously transduced with BacMam baculovirus expressing HIV-1 tat, HIV-1 rev and HIV-1 gp160 (from the HXB2 HIV strain). Routinely an MOI of 10 of each virus was added to the media containing the cells. 2 mM butyric acid was also added to the cells at this stage to increase protein expression in transduced cells. The cells were subsequently mixed and seeded into a flask at 30 million cells per T225. The cells were incubated at 37° C., 5% CO2, 95% humidity for 24 h to allow for protein expression.
Cell/Cell Fusion Assay Format
HEK and HOS cells were harvested in DMEM/F-12 media containing 2% FCS and DMEM media containing 2% FCS, respectively, with no selection agents added. Compounds were plated as 1 ul spots in 100% DMSO on a 96-well CulturPlate plates. HOS cells (50 ul) were added first to the wells, followed immediately by the HEK cells (50 ul). The final concentration of each cell type was 20,000 cells per well. Following these additions, the cells were returned to a tissue culture incubator (37° C.; 5% CO2/95% air) for an additional 24 h.
Measurement of Luciferase Production […]

Here are results for three compounds from patent US20070232615A1, “Chemical Compounds” (priority 2004, published 2007).

Structures are written as SMILES. Where only a bound is given, the exact number is not on record here.

T1 sequence (P61073 whole entry): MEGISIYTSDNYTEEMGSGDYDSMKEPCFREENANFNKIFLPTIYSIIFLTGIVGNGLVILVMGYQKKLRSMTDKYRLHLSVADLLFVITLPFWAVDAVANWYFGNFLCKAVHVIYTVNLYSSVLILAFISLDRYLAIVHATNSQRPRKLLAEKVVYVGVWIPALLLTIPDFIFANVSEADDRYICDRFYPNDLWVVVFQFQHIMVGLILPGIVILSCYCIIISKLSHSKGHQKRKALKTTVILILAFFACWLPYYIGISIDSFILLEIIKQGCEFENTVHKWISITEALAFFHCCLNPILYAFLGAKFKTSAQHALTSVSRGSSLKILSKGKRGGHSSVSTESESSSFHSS

Regarding `c1cc(CN2CCCNCCNCCCNCC2)ccc1CN1CCCNCCNCCCNCC1` [AMD-3100], the “T-tropic HIV viral load” value in the series with T-tropic HIV is on record as “significantly reduce T-tropic HIV viral load”.

Regarding `CC(C)N(Cc1cn2c(N3CCN(C)CC3)cccc2n1)C1CCCc2cccnc21` (centres unmarked) [Example 14, N-(1-Methylethyl)-N-{[5-(4-methyl-1-piperazinyl)imidazo[1,2-a]pyridin-2-yl]methyl}-5,6,7,8-tetrahydro-8-quinolinamine], the IC50 on human CXCR4 was 2 nM; in the series on HIV, below 100 nM; in the series on HIV-1 IIIB, 13 nM; in series [2], 21.9 nM. Further, in series [1], the IC50 at 96 h was above 100000 nM.

Regarding `CN(C)CCN(C)c1cccc2nc(CN(C)C3CCCc4cccnc43)cn12` (centres unmarked) [Example 11, N,N,N′-Trimethyl-N′-(2-{[methyl(5,6,7,8-tetrahydro-8-quinolinyl)amino]methyl}imidazo[1,2-a]pyridin-5-yl)-1,2-ethanediamine], the IC50 on human CXCR4 is 33.9 nM; in the series on HIV, below 100 nM; with HIV-1 IIIB, 32 nM; in series [2], 67.6 nM. In addition, in series [1], the IC50 at 96 h was above 100000 nM.
